Experimental data from US20220062371A1, “LIGAND-DRUG-CONJUGATES AS SUBSTRATES FOR SELECTIVE CLEAVAGE BY THE EXOPEPTIDASE ACTIVITY OF CATHEPSIN B” (DEBIOPHARM RESEARCH & MANUFACTURING S.A., priority 2017, published 2022).
Values joined by “and” are separate entries in the source; they are usually repeats but may differ in a detail not shown here. Equal entries are not always repeated. Where two headings read alike, the source gives them in different places. Non-standard residues stand in square brackets, D forms with d. Residues, ends and D or L forms follow the SMILES beside them. Groups on a side chain read outwards from the residue. *: point of attachment. DM1Mal(CH2)2CO = COc1cc2cc(c1Cl)N(C)C(=O)C[C@H](OC(=O)[C@H](C)N(C)C(=O)CCSC1CC(=O)N(CCC(=O)*)C1=O)[C@]1(C)O[C@H]1[C@H](C)[C@@H]1C[C@@](O)(NC(=O)O1)[C@H](OC)/C=C/C=C(\C)C2; X2 = CC(=O)N[C@@H](CSC1CC(=O)N(CCC(=O)*)C1=O)C(=O)O; Dolaproine = CO[C@@H]([C@@H]1CCCN1)[C@@H](C)C(=O)O; Dil = CC[C@H](C)[C@H](NC)[C@@H](CC(=O)O)OC; NMe2Val = CC(C)[C@@H](C(=O)*)N(C)C; Cit = NC(=O)NCCC[C@H](N)C(=O)O; PEG4 = NCCOCCOCCOCCOCCC(=O)O

How the values were obtained:
[1] = tested on: SK-BR-3 (ErbB2-expressing) cells; assay: Cytotoxic activity, Alamar Blue assay; assay type: cell-based
Experimental: (§1) Log phase cultures of cell lines SK-OV-3 (ErbB2-expressing), SK-BR-3 (ErbB2-expressing), BT-474 (ErbB2-expressing) and MDA-MB-231 (ErbB2 negative) were collected and cells plated at seeding densities ranging from 1,500 to 12,000 cells/well in 96-well microtiter plates according to pre-determined conditions.
(§2) Assessment of cellular growth was done using Alamar Blue (available from Thermo Fisher Scientific) dye reduction assay. Alamar Blue was added to cells to constitute 10% culture volume. Cells were incubated for 4 to 6 hours, and dye reduction was measured by fluorescence on an EnSpire plate reader (Perkin Elmer). Background corrected fluorescence measurements were transformed in % scale by considering vehicle value as 100% activity (relative measurements). Next, relative measurements were analyzed using GraphPad Prism software to derive relative IC50. All experiments were done twice with 3 replicates per concentration. Error bars: SEM (n=3). Cytotoxicity of AF and AF-Arg on ErbB2-expressing SK-OV-3 and SK-BR-3 cells after 72 and 120 h of treatment. SK-OV-3 and SK-BR-3 cells were seeded the day before treatment in complete culture medium. After overnight resting, cells were treated with decreasing concentrations of test compounds in complete culture medium (AF: 10 μM-1 pM; AF-Arg: 10 μM-1 pM, log-dilution).
(§3) SK-OV-3, SK-BR-3 and MDA-MB-231 cells were seeded the day before treatment in complete culture medium.

[2] = tested on: SK-OV-3 (ErbB2-expressing) cells; assay: Cytotoxic activity, Alamar Blue assay; assay type: cell-based
Experimental: as §1, §2, §3

[3] = target: T1, recombinant human Cathepsin B (Homo sapiens, UniProt P07858); assay: Recombinant human Cathepsin B-induced cleavage (in vitro enzymatic cleavage assay, UHPLC-MS/MS); assay type: biochemical; conditions: for half-life at 10 μM: human, 10 μM test compound, Cathepsin B 2 μg/mL, 25 mM MES buffer pH 5.0, 37° C., read-out: T1/2 Compound; for Ratio (T1/2 Compound/T1/2 Reference): reference Cys-MC-Val-Cit-PABC-MMAF; for cleavage rate compared to reference PABC compound (times faster): versus Cys-MC-Val-Cit-PABC-MMAF
T1 construct: purchased R&D Systems (Bio-Techne AG) 953-CY-010
Experimental: Cat B-induced cleavage of the compounds of the present invention was evaluated according to the in vitro enzymatic cleavage assay using recombinant human Cathepsin B and UHPLC-MS/MS analysis as described below.
Reference compounds Cys-MC-Val-Cit-PABC-MMAF and MMAF were used as positive controls.
The in vitro enzymatic assay was conducted at 37° C. with the test compounds at a concentration of 10 μM (2.5 μM when the test compound is an antibody-drug conjugate) in the presence of activated recombinant human Cathepsin B enzyme at 2 μg/mL in a 25 mM MES buffer pH 5.0. The enzymatic cleavage reaction was stopped for each defined time point by mixing an equal volume of acetonitrile+0.1% FA containing an internal standard (warfarine at 8 μM).
Analysis was conducted using a Waters Acquity UPLC System coupled to a Waters Xevo TQ triple quad mass spectrometer. UHPLC was conducted depending on the test compounds with a BEH C8 1.7 μm 100×2.1 mm or BEH C18 1.7 μm 50×2.1 mm or HSS T3 1.7 μm 50×2.1 mm columns heated at 45° C. or 50° C. and fitted with 2 μm insert filter pre-columns (available from Waters), and solvent systems A1 (H2O+0.1% FA) and B1 (acetonitrile+0.1% FA) at a flow rate of 0.6 mL/min and a 10-95% gradient of B1 over 1.9 min.
MS/MS was performed using electrospray ionization (ESI) interface in positive mode and specific MRM transitions for each tested compound.

[4] = tested on: MDA-MB-231 (ErbB2 negative) cells; assay: Cytotoxic activity, Alamar Blue assay; assay type: cell-based; conditions: read-out: Relative IC50 at 96 h (day 4)
Experimental: as §1, §2, §3
BT-474 and MDA-MB-231 cells were seeded the day before treatment in complete culture medium.

[5] = tested on: BT-474 (ErbB2-expressing) cells; assay: Cytotoxic activity, Alamar Blue assay; assay type: cell-based; conditions: ADC3 study, read-out: Relative IC50 at 96 h (day 4)
Experimental: as §1
as §2, with “log-dilution). […]” for “log-dilution).”

[6] = tested on: SK-BR-3 (ErbB2-expressing) cells; assay: Cytotoxic activity, Alamar Blue assay; assay type: cell-based; conditions: ADC1 study, read-out: Relative IC50 at 96 h (day 4)
[7] = tested on: SK-OV-3 (ErbB2-expressing) cells; assay: Cytotoxic activity, Alamar Blue assay; assay type: cell-based; conditions: ADC1 study, read-out: Relative IC50 at 96 h (day 4)
[8] = SK-BR-3, run 1, 72 h, read-out: Relative IC50 at 72 h (day 3)
[9] = SK-BR-3, run 1, 120 h, read-out: Relative IC50 at 120 h (day 5)
[10] = SK-BR-3, run 2, 72 h, read-out: Relative IC50 at 72 h (day 3)
[11] = SK-BR-3, run 2, 120 h, read-out: Relative IC50 at 120 h (day 5)
[12] = SK-OV-3, run 1, 72 h, read-out: Relative IC50 at 72 h (day 3)
[13] = SK-OV-3, run 1, 120 h, read-out: Relative IC50 at 120 h (day 5)
[14] = SK-OV-3, run 2, 72 h, read-out: Relative IC50 at 72 h (day 3)
[15] = SK-OV-3, run 2, 120 h, read-out: Relative IC50 at 120 h (day 5)

CC[C@H](C)[C@@H]([C@@H](CC(=O)N1CCC[C@H]1[C@H](OC)[C@@H](C)C(=O)N[C@@H](Cc1ccccc1)C(=O)O)OC)N(C)C(=O)[C@@H](NC(=O)[C@H](C(C)C)N(C)C)C(C)C [AF, Auristatin F, reference compound] (NMe2Val-V[Dil][Dolaproine]F-OH)
IC50 [1, 8]: 0.0374 µM | IC50 [1, 9]: 0.0188 µM | IC50 [1, 10]: 0.0537 µM | IC50 [1, 11]: 0.0218 µM | IC50 [2, 12]: 0.0828 µM | IC50 [2, 13]: 0.1 µM and ~0.1 µM | IC50 [2, 14]: 0.154 µM | IC50 [2, 15]: 0.145 µM

CC[C@H](C)[C@@H]([C@@H](CC(=O)N1CCC[C@H]1[C@H](OC)[C@@H](C)C(=O)N[C@@H](Cc1ccccc1)C(=O)NCCCC[C@H](NC(=O)[C@H](CCCNC(=N)N)NC(=O)[C@H](CCCCNC(=O)CCN1C(=O)CC(SCCC(=O)N(C)[C@@H](C)C(=O)O[C@H]2CC(=O)N(C)c3cc(cc(OC)c3Cl)C/C(C)=C/C=C/[C@@H](OC)[C@@]3(O)C[C@H](OC(=O)N3)[C@@H](C)[C@@H]3O[C@@]23C)C1=O)NC(=O)[C@H](CCCNC(=N)N)NC(=O)[C@H](Cc1ccccc1)NC(=O)CCOCCOCCOCCOCCNC(=O)CCN1C(=O)CC(SC[C@H](NC(C)=O)C(=O)O)C1=O)C(=O)N[C@@H](Cc1ccccc1)C(=O)O)OC)N(C)C(=O)[C@@H](NC(=O)[C@H](C(C)C)N(C)C)C(C)C (stereo partly drawn) [Compound 30, Ac-Cys-Mal-PEG4-Phe-Arg-Lys(Mal-DM1)-Arg-Lys(AF)-Phe-OH] ({X2-PEG4}-FRK(DM1Mal(CH2)2CO)RK([Phe-Dolaproine-Dil-Val-NMe2Val])F-OH)
half-life at 10 μM [3]: 1.1 min | Ratio (T1/2 Compound/T1/2 Reference) [3]: 0.07 | cleavage rate compared to reference PABC compound (times faster) [3]: more than 10 fold

CC[C@H](C)[C@@H]([C@@H](CC(=O)N1CCC[C@H]1[C@H](OC)[C@@H](C)C(=O)N[C@@H](Cc1ccccc1)C(=O)N[C@@H](CCCNC(N)=O)C(=O)N[C@@H](CCCCNC(=O)CCN1C(=O)CC(SCCC(=O)N(C)[C@@H](C)C(=O)O[C@H]2CC(=O)N(C)c3cc(cc(OC)c3Cl)C/C(C)=C/C=C/[C@@H](OC)[C@@]3(O)C[C@H](OC(=O)N3)[C@@H](C)[C@@H]3O[C@@]23C)C1=O)C(=O)N[C@@H](Cc1ccccc1)C(=O)N[C@@H](CCCCNC(=O)CCOCCOCCOCCOCCNC(=O)CCN1C(=O)CC(SC[C@H](NC(C)=O)C(=O)O)C1=O)C(=O)N[C@@H](Cc1ccccc1)C(=O)O)OC)N(C)C(=O)[C@@H](NC(=O)[C@H](C(C)C)N(C)C)C(C)C (stereo partly drawn) [Compound 31, AF-Cit-Lys(Mal-DM1)-Phe-Lys(PEG4-Mal-Cys-Ac)-Phe-OH] (NMe2Val-V[Dil][Dolaproine]F[Cit]K(DM1Mal(CH2)2CO)FK([PEG4-X2])F-OH)
half-life at 10 μM [3]: 1.08 min | Ratio (T1/2 Compound/T1/2 Reference) [3]: 0.08 | cleavage rate compared to reference PABC compound (times faster) [3]: more than 10 fold

CC[C@H](C)[C@@H]([C@@H](CC(=O)N1CCC[C@H]1[C@H](OC)[C@@H](C)C(=O)N[C@@H](Cc1ccccc1)C(=O)N[C@@H](CCCNC(N)=O)C(=O)N[C@@H](CCCCn1cc(COC(=O)NCCCC[C@H](NC(=O)CCOCCOCCOCCOCCOCCNC(=O)CCN2C(=O)CC(SC[C@H](NC(C)=O)C(=O)O)C2=O)C(=O)NCCOCCOCCOCCOCCOCCC(=O)N[C@@H](CCCCNC(=O)OCc2cn(CCCC[C@H](NC(=O)[C@H](CCCNC(N)=O)NC(=O)[C@H](Cc3ccccc3)NC(=O)[C@H](C)[C@@H](OC)[C@@H]3CCCN3C(=O)C[C@@H](OC)[C@H]([C@@H](C)CC)N(C)C(=O)[C@@H](NC(=O)[C@H](C(C)C)N(C)C)C(C)C)C(=O)N[C@@H](Cc3ccccc3)C(=O)O)nn2)C(=O)NCC(N)=O)nn1)C(=O)N[C@@H](Cc1ccccc1)C(=O)O)OC)N(C)C(=O)[C@@H](NC(=O)[C@H](C(C)C)N(C)C)C(C)C (stereo partly drawn) [Compound 32, Ac-Cys-Mal-[PEG5-Lys(AF-Cit-Lys(Y)-Phe-OH)]2-Gly-NH2]
half-life at 10 μM [3]: 0.98 min | Ratio (T1/2 Compound/T1/2 Reference) [3]: 0.06 | cleavage rate compared to reference PABC compound (times faster) [3]: ~20 fold

COc1cc2cc(c1Cl)N(C)C(=O)C[C@H](OC(=O)[C@H](C)N(C)C(=O)CCS)[C@]1(C)O[C@H]1[C@H](C)[C@@H]1C[C@@](O)(NC(=O)O1)[C@H](OC)/C=C/C=C(\C)C2 [DM1, N2′-deacetyl-N2′-(3-mercapto-1-oxopropyl)-maytansine, reference compound]
IC50 ([4]; MDA-MB-231, run 1, 96 h, ADC3 study): 0.0442 µM | IC50 ([4]; MDA-MB-231, run 2, 96 h, ADC3 study): 0.057 µM | IC50 ([5]; BT-474, run 1, 96 h): 0.0028 µM | IC50 ([5]; BT-474, run 2, 96 h): 0.003 µM

AF-Arg
IC50 [1, 8]: ~0.098 µM | IC50 [1, 9]: 0.0209 µM | IC50 [1, 10]: ~0.111 µM | IC50 [1, 11]: 0.0249 µM | retained cytotoxic activity relative to the native drug (AF) ([1]; SK-BR-3 cells, 120 h): greater than 85% | IC50 [2, 12]: 0.18 µM | IC50 [2, 13]: 0.147 µM | IC50 [2, 14]: 0.24 µM | IC50 [2, 15]: 0.205 µM | retained cytotoxic activity relative to the native drug (AF) ([2]; SK-OV-3 cells, 120 h): about 70% | IC50 ([4]; MDA-MB-231, run 1, 96 h, ADC1 study): 0.0152 µM | IC50 ([4]; MDA-MB-231, run 2, 96 h, ADC1 study): 0.00584 µM | IC50 ([6]; SK-BR-3, run 1, 96 h): ~0.0921 µM | IC50 ([6]; SK-BR-3, run 2, 96 h): 0.128 µM | IC50 ([7]; SK-OV-3, run 1, 96 h): 0.0826 µM | IC50 ([7]; SK-OV-3, run 2, 96 h): 0.243 µM

Arg-PEG4-Phe-Arg-Glu(Sar-OCPT)-Arg-Phe-Arg-OH [Compound 16]
Cat B-induced cleavage, in words [3]: rapidly cleaved

Arg-PEG4-Phe-Arg-[Glu(Sar-OCPT)-Phe]2-OH [Compound 17]
Cat B-induced cleavage, in words [3]: rapidly released

Arg-PEG4-[Phe-Arg-Glu(Sar-OCPT)-Arg]2-OH [Compound 18]
Cat B-induced cleavage, in words [3]: rapidly released
